{"source": "patent US20090054316A1", "about": "“AGENT FOR CONTROL OF FUNCTION OF ANTIGEN-PRESENTING CELL” (RIKEN, priority 2005, published 2009)", "key": {"[1]": {"tested_on": "bone marrow-derived dendritic cells (BMDC)", "assay": "Expression of MHC class I, class II and CD86 molecules on the cell surface of dendritic cells treated with a zinc ion chelator (FACS)", "type": "cell-based, mouse", "conditions": "for expression of MHC class II molecule on BMDC: TPEN 0-2 μM for 6 to 12 hours (dose and treatment time dependency), LPS 100 ng/mL as activation control, FACS", "method": "Dendritic cells, a type of antigen-presenting cells, were treated with N,N,N′,N′-tetrakis(2-pyridylmethyl)ethylenediamine (TPEN), a zinc ion chelator, and examined for the expression of MHC class I molecule, class II molecule and CD86 molecule on the cell surface.\n(§1) Bone marrow cells were obtained from a C57BL/6 mouse (obtained from Clea Japan) and subjected to cell culture using an RPMI medium (SIGMA, R8758) supplemented with 10% FCS (EQUITECH-BIO Inc., #SFB-30-1388) and granulocyte macrophage colony stimulating factor (GM-CSF) in a 5% CO2 environment at 37° C. for 6 days to induce the differentiation of bone marrow-derived dendritic cells (BMDC). To this BMDC, TPEN (SIGMA, P4413) was added for 6 hours to 12 hours to obtain concentrations of 0-2 μM in the medium. Also prepared was a group in which lipopolysaccharide (LPS; 100 ng/mL; SIGMA, L2637, E. Coli O55:B5) was added for control of antigen-presenting cell activation. […] When the cells were treated with the zinc ion chelator, the expression of MHC class II molecule on BMDC was enhanced as with LPS."}, "[2]": {"tested_on": "dendritic cell", "assay": "Dendritic cell activation or inactivation, same in vitro system as Examples 1 and 2", "type": "cell-based, mouse", "conditions": "treatment with 1-10 μM", "method": "as §1\nIn the same experiment (in vitro system) as Examples 1 and 2, dendritic cell activation or inactivation was observed by a treatment with 1-10 μM zinc ion or TPEN."}, "[3]": {"conditions": "dendritic cells treated with zinc ion chelator, FIG. 1"}}, "data": [{"molecule": "c1ccc(CN(CCN(Cc2ccccn2)Cc2ccccn2)Cc2ccccn2)nc1", "note": "[TPEN, N,N,N′,N′-tetrakis(2-pyridylmethyl)ethylenediamine]", "values": [{"measurement": "expression of MHC class II molecule on BMDC", "setting": "[1]", "value": "enhanced"}, {"measurement": "expression of CD86 molecule on the cell surface", "setting": "[1]; [3]", "value": "enhanced"}, {"measurement": "expression of MHC class I molecule on the cell surface", "setting": "[1]; [3]", "value": "enhanced"}, {"measurement": "dendritic cell activation or inactivation", "setting": "[2]", "value": "observed"}]}, {"molecule": "O=S(=O)([O-])[O-].[Zn+2]", "note": "[zinc ion, ZnSO4]", "values": [{"measurement": "dendritic cell activation or inactivation", "setting": "[2]", "value": "observed"}]}, {"molecule": "lipopolysaccharide [LPS]", "values": [{"measurement": "expression of MHC class II molecule on BMDC", "setting": "[1]", "value": "enhanced"}]}]}
